Counter-ions that a name gives are not always drawn.
Target: T1, CRTH2 (KB8 cells) (Homo sapiens, UniProt Q9Y5Y4)
T1 construct: host or cells: KB8 cells (human CRTH2 expression cell)
T1 sequence (Q9Y5Y4 1-395): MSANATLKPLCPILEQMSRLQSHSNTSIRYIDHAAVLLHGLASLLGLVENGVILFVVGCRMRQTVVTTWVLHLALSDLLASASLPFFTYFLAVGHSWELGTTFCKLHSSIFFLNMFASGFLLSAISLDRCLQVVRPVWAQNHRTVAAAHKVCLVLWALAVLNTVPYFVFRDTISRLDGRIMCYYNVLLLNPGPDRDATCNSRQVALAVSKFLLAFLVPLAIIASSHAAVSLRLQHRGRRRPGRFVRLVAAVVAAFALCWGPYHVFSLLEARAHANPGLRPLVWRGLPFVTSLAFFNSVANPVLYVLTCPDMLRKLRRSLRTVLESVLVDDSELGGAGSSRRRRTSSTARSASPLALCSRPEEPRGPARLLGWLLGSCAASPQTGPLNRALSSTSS
Test: CRTH2 antagonist test (PGD2-induced intracellular calcium ion concentration increase in KB8 cells)
Assay type: cell-based
Conditions: PGD2 final concentration 100 nM, Fluo-4-AM fluorescence, read-out: antagonist activity (IC50 value, inhibition of calcium ion concentration increase)
Protocol: The antagonist activity of the compound of the present invention was considered by using the intracellular calcium ion concentration increase reaction induced when the prostaglandin D2 was added to KB8 cells.
Fluo-4-AM (4-(6-acetoxymethoxy-2,7-difluoro-3-oxo-9-xanthenyl)-4′-methyl-2,2′-(ethylenedioxy)dianilide-N,N,N′,N′-tetraacetic acid tetrakis(acetoxymethyl) ester (SIGMA, final concentration: 1 μM) was added to KB8 cells, and the cells were incubated at 37° C. for 30 min, washed with phosphate buffer (Invitrogen), and then suspended in Hank's balanced salt solution (Invitrogen)) containing a reaction buffer solution (10 mM HEPES (Invitrogen), and 1 mM calcium chloride (SIGMA). The suspension was dispensed in a 96 well plate (Nunc) so that 2×10^5 cells/well were placed, and the compound of the present invention and PGD2 (final concentration: 100 nM) were added. The fluorescence intensity thereof was measured over time by using FDSS6000 (Hamamatsu Photonics), and thus the maximum fluorescence intensity value “d” was obtained. The same procedure was carried out in the absence of the compound, and the maximum fluorescence intensity value “e” was obtained; and the same procedure was carried out in the absence of the compound and […], and the maximum fluorescence intensity value “f” was obtained.
The calcium ion concentration increase inhibition rate of a compound was calculated by the following calculation formula: Inhibitory rate(%)=[1−(d−f)/(e−f)]×100
That is to say, by using calcium ion concentration increase inhibitory rates of compounds to be tested having various concentrations, the IC50 value was calculated according to a dose-dependent inhibition curve analyzed by using XLfit (IDBS) as a data analysis software, and the value was defined as an indicator of the antagonist activity. In Tables, A denotes an inhibitory activity showing the IC50 value of less than 50 nM; B denotes an inhibitory activity showing the IC50 value of 50 nM or greater and less than 500 nM; C denotes an inhibitory activity showing the IC50 value of 500 nM or greater and less than 1000 nM; and D denotes an inhibitory activity showing the IC50 value of 1000 nM or greater.

Compound | IC50
O=C(O)Cc1cnc(Cc2ccc(C(=O)NCCc3ccccc3Cl)cc2)c2ccccc12 [Example 162] | < 50 nM
O=C(O)Cc1cnc(Cc2ccc(C(=O)NCCc3ccc(Cl)cc3)cc2)c2ccc(F)cc12 [Example 253, [1-(4-{[2-(4-chlorophenyl)ethyl]carbamoyl}benzyl)-6-fluoroisoquinoline-4-yl]acetic acid] | < 50 nM
O=C(O)Cc1cnc(Oc2ccc(C(=O)NCCc3ccc(Cl)cc3)cc2)c2ccccc12 [Example 261, [1-(4-{[2-(4-chlorophenyl)ethyl]carbamoyl}phenoxy)isoquinolin-4-yl]acetic acid] | ≥ 1000 nM
O=C(O)Cc1cnc(C(=O)c2ccc(C(=O)Nc3ccc(Cl)cc3)cc2)c2ccccc12 [Example 140] | < 50 nM
CCCOc1ccc(C(=O)Nc2ccc(C(=O)c3ncc(CC(=O)O)c4ccccc34)cc2)cc1 [Example 110] | < 50 nM
O=C(O)Cc1cnc(Cc2ccc(OCCc3ccc(Cl)cc3)cc2)c2ccccc12 [Example 149, (1-{4-[2-(4-chlorophenyl)ethoxy]benzyl}isoquinolin-4-yl)acetic acid] | 500 to 1000 nM
O=C(O)Cc1cnc(Cc2ccc(C(=O)NCCc3cc(F)cc(F)c3)cc2)c2ccccc12 [Example 212] | 50 to 500 nM
Cc1c(F)c(F)c(C(=O)Nc2ccc(C(=O)c3ncc(CC(=O)O)c4ccccc34)cc2)c(F)c1F [Example 125] | 500 to 1000 nM
O=C(O)Cc1cnc(Cc2ccc(C(=O)NCCc3cn4ccccc4n3)cc2)c2ccccc12 [Example 227] | ≥ 1000 nM
O=C(O)Cc1cnc(Cc2ccc(C(=O)NCCc3ccc(Cl)c(F)c3)cc2)c2ccccc12 [Example 221] | < 50 nM
CN(C)c1ccc(CCNC(=O)c2ccc(Cc3ncc(CC(=O)O)c4ccccc34)cc2)cc1 [Example 206] | 50 to 500 nM
O=C(O)Cc1cnc(C(=O)c2ccc(CNCc3ccc(Cl)cc3)cc2)c2ccccc12 [Example 147, {1-[(4-{[(4-chlorobenzyl)amino]methyl}phenyl)carbonyl]isoquinolin-4-yl}acetic acid hydrochloride] | ≥ 1000 nM
O=C(O)Cc1cnc(Cc2ccc(C(=O)NCc3ccc(Cl)cc3)cc2)c2ccccc12 [Example 154] | 50 to 500 nM
O=C(O)Cc1cnc(C(=O)c2ccc(NC(=O)c3ccc4c(c3)CCCC4)cc2)c2ccccc12 [Example 54] | < 50 nM
Cc1ccc(C(=O)Nc2ccc(C(=O)c3ncc(CC(=O)O)c4ccccc34)cc2)cc1C [Example 101] | < 50 nM
O=C(O)Cc1cnc(C(=O)c2ccc(NC(=O)c3ccc(C(=O)O)cc3)cc2)c2ccccc12 [Example 79] | ≥ 1000 nM
O=C(O)Cc1cnc(Cc2ccc(OCCOc3ccc(Cl)cc3)cc2)c2ccccc12 [Example 151] | 50 to 500 nM
O=C(O)Cc1cnc(Cc2ccc(C(=O)NCCc3ccc(Br)cc3)cc2)c2ccccc12 [Example 199] | < 50 nM
O=C(O)Cc1cnc(Cc2ccc(C(=O)NCCc3cc(Cl)cc(Cl)c3)cc2)c2ccccc12 [Example 219] | 50 to 500 nM
COc1ccc(C(=O)Nc2ccc(C(=O)c3ncc(CC(=O)O)c4ccccc34)cc2)cc1OC [Example 106] | 50 to 500 nM
O=C(O)Cc1cnc(Cc2ccc(C(=O)NCCc3cc(F)cc(C(F)(F)F)c3)cc2)c2ccccc12 [Example 215] | 50 to 500 nM
N#Cc1ccc(CCNC(=O)c2ccc(Cc3ncc(CC(=O)O)c4ccccc34)cc2)cc1 [Example 223] | 50 to 500 nM
O=C(O)Cc1cnc(Cc2ccc(C(=O)NCCc3cccc(Cl)c3)cc2)c2ccccc12 [Example 155] | < 50 nM
O=C(O)Cc1cnc(C(=O)c2ccc(NC(=O)c3ccc(F)cc3)cc2)c2ccccc12 [Example 28] | < 50 nM
O=C(O)Cc1cnc(Cc2ccc(C(=O)NCCc3ccccc3Br)cc2)c2ccccc12 [Example 183] | < 50 nM
COc1ccc(CCNC(=O)c2ccc(Cc3ncc(CC(=O)O)c4ccccc34)cc2)cc1F [Example 232] | < 50 nM

Compound | IC50
COc1ccc2[nH]c(C(=O)Nc3ccc(C(=O)c4ncc(CC(=O)O)c5ccccc45)cc3)cc2c1 [Example 96] | < 50 nM
O=C(O)Cc1cnc(Cc2ccc(C(=O)NCCc3c[nH]c4ccccc34)cc2)c2ccccc12 [Example 179] | < 50 nM
O=C(O)Cc1cnc(Cc2ccc(C(=O)NCCc3ccncc3)cc2)c2ccccc12 [Example 177] | ≥ 1000 nM
O=C(O)Cc1cnc(C(=O)c2ccc(NC(=O)c3cc(F)ccc3Cl)cc2)c2ccccc12 [Example 42] | 500 to 1000 nM
O=C(O)Cc1cnc(Cc2ccc(C(=O)NCCc3c(Cl)cccc3Cl)cc2)c2ccccc12 [Example 191] | 50 to 500 nM
O=C(O)Cc1cnc(C(=O)c2ccc(NC(=O)c3ccccc3F)cc2)c2ccccc12 [Example 39] | 500 to 1000 nM
CCCOc1ccc(CCNC(=O)c2ccc(Cc3ncc(CC(=O)O)c4ccccc34)cc2)cc1 [Example 241] | < 50 nM
COc1cc(CCNC(=O)c2ccc(Cc3ncc(CC(=O)O)c4ccccc34)cc2)ccc1C [Example 211] | 50 to 500 nM
Cc1ccc(F)cc1CCNC(=O)c1ccc(Cc2ncc(CC(=O)O)c3ccccc23)cc1 [Example 213] | 50 to 500 nM
O=C(O)Cc1cnc(Cc2ccc(C(=O)NCCC3CC3)cc2)c2ccccc12 [Example 239] | 50 to 500 nM
O=C(Cc1cnc(Cc2ccc(C(=O)NCCc3ccc(Cl)cc3)cc2)c2ccccc12)NO [Example 258, N-[2-(4-chlorophenyl)ethyl]-4-({4-[2-(hydroxyamino)-2-oxoethyl]isoquinolin-1-yl}methyl)benzamide] | ≥ 1000 nM
COc1cc2c(CC(=O)O)cnc(C(=O)c3ccc(C(=O)NCCc4ccc(Cl)cc4)cc3)c2cc1OC [Example 259, {1-[(4-{[2-(4-chlorophenyl)ethyl]carbamoyl}phenyl)carbonyl]-6,7-dimethoxyisoquinolin-4-yl}acetic acid] | 50 to 500 nM
CC(C)(CNC(=O)c1ccc(Cc2ncc(CC(=O)O)c3ccccc23)cc1)c1ccc(Cl)cc1 [Example 251] | 50 to 500 nM
O=C(O)Cc1cnc(C(=O)c2ccc(NC(=O)c3c(Cl)cccc3Cl)cc2)c2ccccc12 [Example 33] | ≥ 1000 nM
O=C(O)Cc1cnc(Cc2ccc(C(=O)NCCc3ccc(O)cc3)cc2)c2ccccc12 [Example 196] | 500 to 1000 nM
O=C(O)Cc1cnc(Cc2ccc(C(=O)NCCc3ccc(F)c(Cl)c3)cc2)c2ccccc12 [Example 210] | < 50 nM
COc1cc(CCNC(=O)c2ccc(Cc3ncc(CC(=O)O)c4ccccc34)cc2)cc(OC)c1O [Example 209] | ≥ 1000 nM
O=C(O)Cc1cnc(C(=O)c2ccc(NC(=O)c3cc(Cl)ccc3Cl)cc2)c2ccccc12 [Example 43] | 50 to 500 nM
O=C(O)Cc1cnc(Cc2ccc(C(=O)NCCc3ccc(-c4ccccc4)cc3)cc2)c2ccccc12 [Example 194] | < 50 nM
COc1cccc(CCNC(=O)c2ccc(Cc3ncc(CC(=O)O)c4ccccc34)cc2)c1 [Example 197] | 50 to 500 nM
O=C(O)Cc1cnc(Cc2ccc(C(=O)NCCc3cccc(Cl)c3F)cc2)c2ccccc12 [Example 244] | < 50 nM
Cc1ccc(C(=O)Nc2ccc(C(=O)c3ncc(CC(=O)O)c4ccccc34)cc2)cc1Cl [Example 99] | < 50 nM
O=C(O)Cc1cnc(C(=O)c2ccc(NC(=O)C3CCOCC3)cc2)c2ccccc12 [Example 81] | ≥ 1000 nM
CNC(=O)c1ccc(Cc2ncc(CC(=O)O)c3ccccc23)cc1 [Example 220] | ≥ 1000 nM
CCCCNC(=O)c1ccc(Cc2ncc(CC(=O)O)c3ccccc23)cc1 [Example 186] | 500 to 1000 nM

Reference: patent US8461329B2, “Isoquinoline derivative” (Taisho Pharmaceutical Co., Ltd., priority 2008, dated 2013)
